Assay results: ChEMBL document CHEMBL1138659 (J Med Chem, 2004)

Experiments:
[1] = molecular target: Cyclin-dependent kinase 2 (Homo sapiens, UniProt P24941); assay: Inhibition of human Cyclin-dependent kinase 2
Rattus norvegicus [2] = assay: In vivo insulin (10 units) response in rats at 10 mg/kg dose; type: functional
[3] = molecular target: T1, Glycogen synthase kinase-3 beta (Homo sapiens, UniProt P49841); assay: Inhibition of Glycogen synthase kinase-3 beta dependent Tau protein serine-396 phosphorylation in human SY5Y cells; type: functional, cell-based
T1 sequence (P49841 whole entry): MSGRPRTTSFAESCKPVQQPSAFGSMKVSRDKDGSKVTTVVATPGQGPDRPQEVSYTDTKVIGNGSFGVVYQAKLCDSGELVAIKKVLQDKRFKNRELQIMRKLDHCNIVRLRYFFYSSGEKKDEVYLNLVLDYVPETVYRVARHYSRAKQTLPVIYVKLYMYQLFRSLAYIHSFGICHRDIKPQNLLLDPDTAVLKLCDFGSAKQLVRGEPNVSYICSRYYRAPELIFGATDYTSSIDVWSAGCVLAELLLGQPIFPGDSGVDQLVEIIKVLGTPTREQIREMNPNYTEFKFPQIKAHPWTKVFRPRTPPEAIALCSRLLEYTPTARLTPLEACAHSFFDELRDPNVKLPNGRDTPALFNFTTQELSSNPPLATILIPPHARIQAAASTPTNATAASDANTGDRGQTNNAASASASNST

[4] = molecular target: T1, Glycogen synthase kinase-3 beta
Description: Inhibition of human Glycogen synthase kinase-3 beta

MAP kinase p38 = MAP kinase p38 (Homo sapiens, UniProt O15264+Q15759+Q16539+P53778); assay: Inhibition of human Mitogen-activated protein kinase p38
[5] = molecular target: Cyclin-dependent kinase 4 (Homo sapiens, UniProt P11802); assay: Inhibition of human Cyclin-dependent kinase 4
Chain of Cyclin-dependent kinase 4 (P11802 whole entry): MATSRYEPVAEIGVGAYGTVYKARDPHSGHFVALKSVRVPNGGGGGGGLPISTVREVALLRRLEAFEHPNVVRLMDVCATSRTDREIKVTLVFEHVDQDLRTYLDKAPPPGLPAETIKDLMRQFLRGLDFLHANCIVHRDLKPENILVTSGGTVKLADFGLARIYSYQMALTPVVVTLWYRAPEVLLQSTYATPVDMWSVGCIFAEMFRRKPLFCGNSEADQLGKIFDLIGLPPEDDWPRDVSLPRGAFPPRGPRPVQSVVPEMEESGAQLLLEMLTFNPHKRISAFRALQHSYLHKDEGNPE

TGF-beta receptor type-2 = TGF-beta receptor type-2 (Homo sapiens, UniProt P37173); assay: Inhibition of human TGF-beta type II receptor
Chain of TGF-beta receptor type-2 (P37173 whole entry): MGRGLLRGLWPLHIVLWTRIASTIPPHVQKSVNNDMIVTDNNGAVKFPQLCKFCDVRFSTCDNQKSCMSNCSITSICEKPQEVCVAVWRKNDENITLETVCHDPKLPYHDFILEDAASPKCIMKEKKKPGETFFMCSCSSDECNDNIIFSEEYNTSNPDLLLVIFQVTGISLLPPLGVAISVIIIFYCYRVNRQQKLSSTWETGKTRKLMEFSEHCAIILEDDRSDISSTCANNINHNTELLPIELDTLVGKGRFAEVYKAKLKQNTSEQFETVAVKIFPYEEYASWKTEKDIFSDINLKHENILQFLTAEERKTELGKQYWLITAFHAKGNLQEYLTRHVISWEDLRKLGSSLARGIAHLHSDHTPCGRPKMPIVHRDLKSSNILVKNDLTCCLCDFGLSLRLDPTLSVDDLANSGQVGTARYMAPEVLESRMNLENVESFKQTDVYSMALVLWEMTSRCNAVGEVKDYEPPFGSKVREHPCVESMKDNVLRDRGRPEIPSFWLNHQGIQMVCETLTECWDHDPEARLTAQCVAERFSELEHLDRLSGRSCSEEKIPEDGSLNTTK

[6] = molecular target: cAMP-dependent protein kinase catalytic subunit beta (Homo sapiens, UniProt P22694); assay: Inhibition of human Protein kinase A beta
Rattus norvegicus [7] = assay: In vivo glucose reduction in rats at 10 mg/kg dose; type: functional; set-up: scale not given: the % may be the effect or the level left
[8] = molecular target: RAC-alpha serine/threonine-protein kinase (Homo sapiens, UniProt P31749); assay: Inhibition of human Akt1
Chain of RAC-alpha serine/threonine-protein kinase (P31749 whole entry): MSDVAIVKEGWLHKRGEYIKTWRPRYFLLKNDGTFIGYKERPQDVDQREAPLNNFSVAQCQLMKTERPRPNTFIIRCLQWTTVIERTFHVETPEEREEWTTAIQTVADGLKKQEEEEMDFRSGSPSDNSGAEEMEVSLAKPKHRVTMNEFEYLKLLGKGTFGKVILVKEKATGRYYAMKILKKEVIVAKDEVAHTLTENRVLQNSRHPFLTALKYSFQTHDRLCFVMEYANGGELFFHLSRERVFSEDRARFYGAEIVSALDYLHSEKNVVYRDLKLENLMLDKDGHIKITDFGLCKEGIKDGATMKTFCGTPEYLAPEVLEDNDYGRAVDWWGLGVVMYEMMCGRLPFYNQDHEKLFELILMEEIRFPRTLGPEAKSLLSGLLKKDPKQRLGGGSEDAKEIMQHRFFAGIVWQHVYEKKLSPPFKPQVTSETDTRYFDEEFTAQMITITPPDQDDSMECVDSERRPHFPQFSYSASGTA

[9] = molecular target: Vascular endothelial growth factor receptor 2 (Homo sapiens, UniProt P35968); assay: Inhibition of human Vascular endothelial growth factor receptor 2
Chain of Vascular endothelial growth factor receptor 2 (P35968 whole entry): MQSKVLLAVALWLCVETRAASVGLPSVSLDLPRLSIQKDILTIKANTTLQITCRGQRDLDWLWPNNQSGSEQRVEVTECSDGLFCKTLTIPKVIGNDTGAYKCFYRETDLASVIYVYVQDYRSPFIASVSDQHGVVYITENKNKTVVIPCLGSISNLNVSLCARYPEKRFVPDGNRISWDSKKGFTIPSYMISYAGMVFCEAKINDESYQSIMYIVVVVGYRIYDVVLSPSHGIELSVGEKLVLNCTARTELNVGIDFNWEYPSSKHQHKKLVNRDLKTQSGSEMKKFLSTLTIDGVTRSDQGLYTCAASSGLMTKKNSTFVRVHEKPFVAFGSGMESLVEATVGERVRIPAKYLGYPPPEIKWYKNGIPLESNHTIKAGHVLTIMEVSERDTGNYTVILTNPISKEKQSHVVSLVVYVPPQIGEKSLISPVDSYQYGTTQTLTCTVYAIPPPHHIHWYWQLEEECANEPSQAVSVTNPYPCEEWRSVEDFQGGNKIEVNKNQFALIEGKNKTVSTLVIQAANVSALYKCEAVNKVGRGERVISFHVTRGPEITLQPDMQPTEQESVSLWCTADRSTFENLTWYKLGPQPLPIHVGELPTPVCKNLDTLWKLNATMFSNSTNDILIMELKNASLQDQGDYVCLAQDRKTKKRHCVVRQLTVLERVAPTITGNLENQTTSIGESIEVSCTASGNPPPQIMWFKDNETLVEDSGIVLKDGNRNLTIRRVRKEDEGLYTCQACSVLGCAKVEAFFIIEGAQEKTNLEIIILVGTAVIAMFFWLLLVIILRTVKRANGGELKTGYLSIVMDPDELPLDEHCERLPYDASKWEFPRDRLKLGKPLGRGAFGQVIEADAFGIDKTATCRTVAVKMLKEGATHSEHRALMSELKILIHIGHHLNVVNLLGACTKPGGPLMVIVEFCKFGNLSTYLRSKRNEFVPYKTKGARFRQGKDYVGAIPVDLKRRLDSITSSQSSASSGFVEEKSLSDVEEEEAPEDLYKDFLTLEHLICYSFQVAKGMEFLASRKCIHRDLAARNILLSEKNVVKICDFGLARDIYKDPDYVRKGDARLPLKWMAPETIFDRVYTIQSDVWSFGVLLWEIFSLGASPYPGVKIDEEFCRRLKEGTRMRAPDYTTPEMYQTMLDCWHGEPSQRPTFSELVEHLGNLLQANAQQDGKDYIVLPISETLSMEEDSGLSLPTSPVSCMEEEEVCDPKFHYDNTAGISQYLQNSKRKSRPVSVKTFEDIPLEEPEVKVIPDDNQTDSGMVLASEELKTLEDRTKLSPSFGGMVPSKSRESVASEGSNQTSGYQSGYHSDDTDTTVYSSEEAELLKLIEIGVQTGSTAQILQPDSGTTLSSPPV

[10] = molecular target: Protein kinase C beta type (Homo sapiens, UniProt P05771); assay: Inhibition of human Protein kinase C beta 2
Chain of Protein kinase C beta type (P05771 whole entry): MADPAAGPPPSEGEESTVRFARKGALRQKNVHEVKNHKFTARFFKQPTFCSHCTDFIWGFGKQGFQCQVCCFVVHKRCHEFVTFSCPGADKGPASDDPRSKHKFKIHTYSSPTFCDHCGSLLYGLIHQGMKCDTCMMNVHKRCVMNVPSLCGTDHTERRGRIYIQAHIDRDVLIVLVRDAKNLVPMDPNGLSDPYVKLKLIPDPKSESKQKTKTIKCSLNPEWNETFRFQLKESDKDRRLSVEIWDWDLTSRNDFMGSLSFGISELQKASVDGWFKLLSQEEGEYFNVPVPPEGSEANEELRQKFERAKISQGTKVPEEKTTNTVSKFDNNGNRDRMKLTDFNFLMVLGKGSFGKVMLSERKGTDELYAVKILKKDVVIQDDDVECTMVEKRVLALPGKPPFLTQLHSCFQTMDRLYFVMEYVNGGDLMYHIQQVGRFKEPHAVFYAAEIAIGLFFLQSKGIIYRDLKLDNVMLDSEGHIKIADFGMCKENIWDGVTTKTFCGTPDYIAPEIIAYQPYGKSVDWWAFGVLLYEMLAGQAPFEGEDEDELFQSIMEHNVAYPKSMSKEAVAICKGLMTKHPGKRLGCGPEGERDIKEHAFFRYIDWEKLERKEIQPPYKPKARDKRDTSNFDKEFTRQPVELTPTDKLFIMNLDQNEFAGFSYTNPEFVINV

[11] = molecular target: Mitogen-activated protein kinase kinase kinase 20 (Homo sapiens, UniProt Q9NYL2)
Chain of Mitogen-activated protein kinase kinase kinase 20 (Q9NYL2 whole entry): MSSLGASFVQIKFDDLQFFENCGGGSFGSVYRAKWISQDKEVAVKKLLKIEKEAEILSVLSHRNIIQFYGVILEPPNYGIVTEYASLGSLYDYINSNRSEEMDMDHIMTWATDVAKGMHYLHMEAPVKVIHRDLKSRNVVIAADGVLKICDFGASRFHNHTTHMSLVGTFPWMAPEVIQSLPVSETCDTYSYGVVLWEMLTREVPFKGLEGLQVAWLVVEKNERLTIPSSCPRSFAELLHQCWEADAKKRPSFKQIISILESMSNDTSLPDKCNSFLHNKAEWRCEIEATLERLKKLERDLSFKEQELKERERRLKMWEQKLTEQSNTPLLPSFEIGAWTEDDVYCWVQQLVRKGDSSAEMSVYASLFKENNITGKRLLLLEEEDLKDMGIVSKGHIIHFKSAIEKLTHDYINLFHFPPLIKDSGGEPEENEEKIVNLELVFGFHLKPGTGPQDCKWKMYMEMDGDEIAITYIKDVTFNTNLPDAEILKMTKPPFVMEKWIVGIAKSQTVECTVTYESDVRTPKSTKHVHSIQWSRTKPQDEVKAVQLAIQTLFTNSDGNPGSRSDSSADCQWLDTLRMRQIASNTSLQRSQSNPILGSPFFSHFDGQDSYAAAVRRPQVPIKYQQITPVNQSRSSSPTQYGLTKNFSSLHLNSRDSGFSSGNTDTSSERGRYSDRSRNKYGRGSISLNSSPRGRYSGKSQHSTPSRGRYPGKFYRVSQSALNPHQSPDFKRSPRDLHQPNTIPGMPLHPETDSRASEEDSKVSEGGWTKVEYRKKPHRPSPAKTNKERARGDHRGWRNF

[12] = Oral bioavailability; type: ADME, organism-based; settings: rat, in vivo
[13] = Compound was tested for volume distribution; type: ADME; settings: rat; read-out: Volume distribution
[14] = Half life in oral, hours; type: ADME, organism-based; settings: rat, in vivo
[15] = Compound was tested for in vivo clearance; type: ADME, organism-based; settings: rat
[16] = Half life in in vivo, hours; type: ADME, organism-based; settings: rat
[17] = Compound was tested for oral AUC at 0 to 24 hours; type: ADME; set-up: time < 24 hr, route oral; settings: rat
Rattus norvegicus [18] = species on record: Rattus norvegicus; assay: Threshold minimal effective dose in rats; type: functional

Structure (SMILES)	IC50 [1] [nM]	Response (Rattus norvegicus [2]) [%]	IC50 [3] [nM]	IC50 [4] [nM]	IC50 (MAP kinase p38) [nM]	IC50 [5] [nM]	IC50 (TGF-beta receptor type-2) [nM]	IC50 [6] [nM]	Activity (Rattus norvegicus [7]) [%]	IC50 [8] [nM]	IC50 [9] [nM]	IC50 [10] [nM]	IC50 [11] [nM]	bioavailability [12] [%]	Vd [13] [L]	half-life [14] [h]	clearance [15] [mL/min/kg]	half-life [16] [h]	AUC [17] [ng·h/mL]	TMED (Rattus norvegicus [18]) [mg/kg]
CN(C)C(=O)N1CCn2cc(C3=C(c4cnc5ccccn45)C(=O)NC3=O)c3cccc(c32)C1	2100	104	12	1.6	> 20000	1500	> 20000	> 20000	53	> 20000	> 20000	1000	> 20000							
O=C1NC(=O)C(c2cnc3ccccn23)=C1c1cn2c3c(cc(F)cc13)CN(C(=O)N1CCCCC1)CC2 [LY-2090314]		124	0.7	1.1		1800	1200	> 20000	61	> 20000		420		23	1	2.8	12	1.1	3550	1.5
O=C1NC(=O)C(c2cnc3ccccn23)=C1c1cn2c3c(cccc13)CN(C(=O)N1CCOCC1)CC2		119	2.6	1.3		1700	2000	> 20000	78	> 20000		1100								1.44
O=C1NC(=O)C(c2cnc3ccccn23)=C1c1cn2c3c(cccc13)CN(C(=O)N1CCCCC1)CC2	5400	124	1.6	2	> 20000	4800	3100		69	> 20000	> 20000	560								2.22
CC(C)OC(=O)N1CCn2cc(C3=C(c4cnc5ccccn45)C(=O)NC3=O)c3cccc(c32)C1	3400	105	15	1.3		3300	> 20000	> 20000	58	> 20000	> 20000	800	> 20000							4.27
